Assay [1] has as its target Nucleotide-binding oligomerization domain-containing protein 2 (Homo sapiens, UniProt Q9HC29). Kind of assay: inhibition of MDP-driven NOD2 NF-kB reporter – cell-based, set 3, SAR follow-up (AID 2799). The format is functional.
For another assay, the system named is HEK293. Nature of the assay: SAR analysis of compounds that are cytotoxic to HEK293 - Set 3. [Related pubchem assays (depositor defined):AID1575, AID1578, AID1848, AID1849, AID2001, AID2333, AID2334, AID2335, AID2337, AID2469]. The format is functional, cell-based. Conditions: Homo sapiens.
The target in another assay is Tumor necrosis factor (Homo sapiens, UniProt P01375). Nature of the assay: analog potency on TNFa NF-kB signaling – cell-based, set 3, SAR follow-up (AID 2801). The assay is classed as functional.
Tumor necrosis factor, sequence (P01375 whole entry, the tested form may be a part): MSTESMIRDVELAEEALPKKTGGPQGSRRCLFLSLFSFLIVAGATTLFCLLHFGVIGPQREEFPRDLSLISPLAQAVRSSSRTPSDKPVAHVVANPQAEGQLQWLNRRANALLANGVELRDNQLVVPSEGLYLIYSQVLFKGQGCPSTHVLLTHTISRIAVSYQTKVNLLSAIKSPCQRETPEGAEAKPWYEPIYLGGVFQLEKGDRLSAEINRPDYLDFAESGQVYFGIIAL
In assay [2] the target is Nucleotide-binding oligomerization domain-containing protein 1 (Homo sapiens, UniProt Q9Y239). Nature of the assay: SAR analysis of compounds that inhibit NOD1 - Set 3. [Related pubchem assays (depositor defined):AID1566, AID1575, AID1578, AID1849, AID1852, AID2333, AID2335, AID2466]. The assay is classed as functional.
Nucleotide-binding oligomerization domain-containing protein 1, sequence (Q9Y239 whole entry, the tested form may be a part): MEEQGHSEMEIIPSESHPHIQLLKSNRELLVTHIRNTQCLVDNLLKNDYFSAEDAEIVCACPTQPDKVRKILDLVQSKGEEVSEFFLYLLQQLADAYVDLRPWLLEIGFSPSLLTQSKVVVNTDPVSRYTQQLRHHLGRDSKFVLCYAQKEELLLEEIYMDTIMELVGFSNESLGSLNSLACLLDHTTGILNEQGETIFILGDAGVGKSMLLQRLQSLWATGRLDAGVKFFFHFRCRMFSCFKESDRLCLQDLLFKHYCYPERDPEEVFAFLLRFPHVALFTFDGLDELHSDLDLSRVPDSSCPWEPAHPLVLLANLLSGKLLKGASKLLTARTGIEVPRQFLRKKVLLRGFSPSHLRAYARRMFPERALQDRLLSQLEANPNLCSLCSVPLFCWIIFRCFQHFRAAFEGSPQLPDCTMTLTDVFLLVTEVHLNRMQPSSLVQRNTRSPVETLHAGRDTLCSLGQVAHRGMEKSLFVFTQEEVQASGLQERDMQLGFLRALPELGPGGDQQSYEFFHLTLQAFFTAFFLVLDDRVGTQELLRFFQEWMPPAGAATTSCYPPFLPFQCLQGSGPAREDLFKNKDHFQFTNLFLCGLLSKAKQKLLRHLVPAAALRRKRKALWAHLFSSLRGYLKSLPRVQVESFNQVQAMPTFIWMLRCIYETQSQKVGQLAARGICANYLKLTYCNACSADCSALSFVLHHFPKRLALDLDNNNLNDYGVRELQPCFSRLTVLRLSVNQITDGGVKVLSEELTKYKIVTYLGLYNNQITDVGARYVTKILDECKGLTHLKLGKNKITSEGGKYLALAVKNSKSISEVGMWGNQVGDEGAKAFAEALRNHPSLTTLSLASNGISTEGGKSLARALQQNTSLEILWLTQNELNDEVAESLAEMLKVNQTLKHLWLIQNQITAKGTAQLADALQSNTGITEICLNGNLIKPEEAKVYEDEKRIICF
Assay [3] concerns the target T1, Corticotropin-releasing factor receptor 2/Corticotropin-releasing factor-binding protein (Homo sapiens, UniProt P24387+Q13324).
T1 sequence (Q13324 whole entry): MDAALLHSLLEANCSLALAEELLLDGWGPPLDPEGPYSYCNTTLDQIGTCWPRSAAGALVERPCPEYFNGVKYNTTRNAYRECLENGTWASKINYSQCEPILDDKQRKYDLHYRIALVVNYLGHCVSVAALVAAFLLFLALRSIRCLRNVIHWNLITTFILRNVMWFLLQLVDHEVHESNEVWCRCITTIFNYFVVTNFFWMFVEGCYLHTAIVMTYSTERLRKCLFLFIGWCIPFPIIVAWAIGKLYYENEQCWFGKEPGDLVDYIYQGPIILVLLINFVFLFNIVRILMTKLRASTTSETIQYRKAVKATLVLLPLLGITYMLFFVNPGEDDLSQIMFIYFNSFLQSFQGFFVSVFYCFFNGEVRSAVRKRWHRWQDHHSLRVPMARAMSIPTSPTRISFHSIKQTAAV
T1 sequence (P24387 whole entry): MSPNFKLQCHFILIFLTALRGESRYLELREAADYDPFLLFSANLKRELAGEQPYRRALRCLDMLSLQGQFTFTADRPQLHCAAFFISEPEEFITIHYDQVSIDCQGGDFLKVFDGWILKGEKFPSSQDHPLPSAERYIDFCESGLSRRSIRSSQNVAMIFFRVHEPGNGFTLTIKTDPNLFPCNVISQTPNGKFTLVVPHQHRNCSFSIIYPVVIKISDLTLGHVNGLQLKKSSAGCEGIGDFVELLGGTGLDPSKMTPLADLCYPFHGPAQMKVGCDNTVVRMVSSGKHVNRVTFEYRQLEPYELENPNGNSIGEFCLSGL
Nature of the assay: activators of CRF receptor 2 with binding protein – uHTS hits, confirmation (AID 602473). The assay is classed as functional. Particulars: read-out: EC50_Mean.

The next assay has as its target Ion channel NompC (Danio rerio, UniProt Q7T1G6). Kind of assay: Dose response cell-based high-throughput screening assay for agonists of the transient receptor potential channel N1 (TRPN1). [Related pubchem assays (depositor defined):AID1424, AID1448]. The format is functional.
A further assay deals with Mucolipin-3 (Homo sapiens, UniProt Q8TDD5). Kind of assay: Fluorescence counterscreen assay for […] agonists: dose response cell-based high-throughput screening assay to identify agonists of the transient receptor potential channel ML3 (TRPML3). [Related pubchem assays: 1424, 1448 ]. The assay is classed as functional.
Mucolipin-3, sequence (Q8TDD5 whole entry): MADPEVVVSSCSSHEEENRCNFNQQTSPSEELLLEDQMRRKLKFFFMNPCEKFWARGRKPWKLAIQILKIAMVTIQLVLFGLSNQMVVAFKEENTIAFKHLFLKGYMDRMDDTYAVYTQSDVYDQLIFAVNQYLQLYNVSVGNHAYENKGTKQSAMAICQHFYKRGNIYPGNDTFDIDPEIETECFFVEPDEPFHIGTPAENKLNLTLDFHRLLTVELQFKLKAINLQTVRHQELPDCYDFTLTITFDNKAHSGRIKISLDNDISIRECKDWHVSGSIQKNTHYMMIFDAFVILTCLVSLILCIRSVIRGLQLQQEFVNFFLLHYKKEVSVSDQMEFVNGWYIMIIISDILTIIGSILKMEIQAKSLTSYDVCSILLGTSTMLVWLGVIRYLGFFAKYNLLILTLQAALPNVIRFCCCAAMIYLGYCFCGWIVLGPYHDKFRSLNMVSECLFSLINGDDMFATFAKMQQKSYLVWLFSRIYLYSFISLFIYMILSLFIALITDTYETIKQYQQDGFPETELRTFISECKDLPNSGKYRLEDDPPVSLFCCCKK
Assay [4] concerns the target Signal transducer and activator of transcription 1-alpha/beta (Homo sapiens, UniProt P42224). Kind of assay: STAT3 blockade with qPCR and toxicity readouts – cell-based, STAT1 panel, cytotoxicity, late-stage follow-up, panel member STAT1 Inhibition (AID 2078). (Quantitative PCR measures a nucleic acid by following its amplification.)
Assay [5] addresses Signal transducer and activator of transcription 3 (Homo sapiens, UniProt P40763). Kind of assay: STAT3 blockade with qPCR and toxicity readouts – cell-based, STAT1 panel, cytotoxicity, late-stage follow-up, panel member STAT3 Inhibition (AID 2078).
The target in assay [6] is T2, Kappa-type opioid receptor (Homo sapiens, UniProt P41145). Kind of assay: SAR analysis of small molecule antagonists of the kappa opioid receptor via a luminescent beta-arrestin assay - Set 5. [Related pubchem assays (depositor defined):AID1778, AID1785]. The assay is classed as functional.
T2 sequence (P41145 whole entry): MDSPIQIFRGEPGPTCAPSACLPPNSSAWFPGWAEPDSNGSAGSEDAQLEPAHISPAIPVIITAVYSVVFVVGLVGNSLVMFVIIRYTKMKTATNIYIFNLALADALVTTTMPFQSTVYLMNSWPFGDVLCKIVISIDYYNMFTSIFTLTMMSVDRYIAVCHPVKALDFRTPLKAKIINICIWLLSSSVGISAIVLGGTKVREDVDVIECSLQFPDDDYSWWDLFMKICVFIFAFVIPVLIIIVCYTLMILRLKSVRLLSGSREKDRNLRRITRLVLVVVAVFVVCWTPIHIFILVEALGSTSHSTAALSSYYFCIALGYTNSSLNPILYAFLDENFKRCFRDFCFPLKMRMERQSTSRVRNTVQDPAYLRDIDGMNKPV
Assay [7] addresses T2, Kappa-type opioid receptor. Nature of the assay: SAR analysis of small molecule antagonists of the kappa opioid receptor via a luminescent beta-arrestin assay - Set 4. [Related pubchem assays (depositor defined):AID1777, AID1778, AID1785, AID1786, AID1966, AID2133, AID2136, AID2285]. The assay is classed as functional.
Assay [8] concerns the target T3, Runt-related transcription factor 1/Core-binding factor subunit beta (Homo sapiens, UniProt Q01196+Q13951). Nature of the assay: Runt domain/CBFb-SMMHC interaction disruptors – biochemical, TR-FRET (AID 1438). The format is protein assay. In general terms: TR-FRET usually uses a lanthanide donor and a delayed reading to cut background.
The target of assay [9] is T3, Runt-related transcription factor 1/Core-binding factor subunit beta. Kind of assay: disruptors of Runt domain/CBFb-SMMHC interaction – biochemical, FRET, Cerulean-Runt, Venus-CBFb-SMMHC, uHTS, […] (AID 1434). The format is protein assay.
The nature of assay [10]: Intein inhibitors as potential Tuberculosis drugs, a cytotoxicity screen. [Related pubchem assays (depositor defined):AID2221, AID2223, AID434968, AID435010, AID449749, AID449750, AID489010]. The assay is classed as functional.
The target of assay [11] is T4, Replicative DNA helicase DnaB (Mycobacterium tuberculosis, UniProt P9WMR3).
T4 sequence (P9WMR3 whole entry): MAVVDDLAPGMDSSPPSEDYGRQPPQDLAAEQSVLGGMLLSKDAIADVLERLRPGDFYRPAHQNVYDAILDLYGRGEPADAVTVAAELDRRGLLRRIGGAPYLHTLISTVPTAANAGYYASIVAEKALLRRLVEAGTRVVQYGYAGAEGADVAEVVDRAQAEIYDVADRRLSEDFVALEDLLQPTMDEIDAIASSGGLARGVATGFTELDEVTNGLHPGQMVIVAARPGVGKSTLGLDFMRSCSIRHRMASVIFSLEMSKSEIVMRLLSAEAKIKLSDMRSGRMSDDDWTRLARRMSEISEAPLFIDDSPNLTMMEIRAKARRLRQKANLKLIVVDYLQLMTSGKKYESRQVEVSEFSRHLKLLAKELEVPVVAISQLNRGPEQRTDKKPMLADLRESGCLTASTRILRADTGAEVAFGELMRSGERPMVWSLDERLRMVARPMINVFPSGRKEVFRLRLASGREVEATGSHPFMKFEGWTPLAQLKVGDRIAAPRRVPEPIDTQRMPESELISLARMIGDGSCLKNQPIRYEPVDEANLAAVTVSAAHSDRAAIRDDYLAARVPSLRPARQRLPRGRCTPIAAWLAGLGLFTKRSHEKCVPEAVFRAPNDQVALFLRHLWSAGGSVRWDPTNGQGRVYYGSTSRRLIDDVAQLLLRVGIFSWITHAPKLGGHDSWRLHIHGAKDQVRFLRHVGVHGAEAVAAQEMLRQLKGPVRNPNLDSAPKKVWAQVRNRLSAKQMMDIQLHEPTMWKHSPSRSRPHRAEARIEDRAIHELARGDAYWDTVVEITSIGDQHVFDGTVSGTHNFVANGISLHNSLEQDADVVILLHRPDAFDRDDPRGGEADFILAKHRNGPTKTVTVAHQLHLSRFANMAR
Nature of the assay: DnaB intein splicing inhibitors, dose response, biochemical, cell-free fluorescence (AID 449749). The format is functional.

The target in a further assay is T5, Protein RecA (Mycobacterium tuberculosis, UniProt P9WHJ3).
T5 sequence (P9WHJ3 whole entry): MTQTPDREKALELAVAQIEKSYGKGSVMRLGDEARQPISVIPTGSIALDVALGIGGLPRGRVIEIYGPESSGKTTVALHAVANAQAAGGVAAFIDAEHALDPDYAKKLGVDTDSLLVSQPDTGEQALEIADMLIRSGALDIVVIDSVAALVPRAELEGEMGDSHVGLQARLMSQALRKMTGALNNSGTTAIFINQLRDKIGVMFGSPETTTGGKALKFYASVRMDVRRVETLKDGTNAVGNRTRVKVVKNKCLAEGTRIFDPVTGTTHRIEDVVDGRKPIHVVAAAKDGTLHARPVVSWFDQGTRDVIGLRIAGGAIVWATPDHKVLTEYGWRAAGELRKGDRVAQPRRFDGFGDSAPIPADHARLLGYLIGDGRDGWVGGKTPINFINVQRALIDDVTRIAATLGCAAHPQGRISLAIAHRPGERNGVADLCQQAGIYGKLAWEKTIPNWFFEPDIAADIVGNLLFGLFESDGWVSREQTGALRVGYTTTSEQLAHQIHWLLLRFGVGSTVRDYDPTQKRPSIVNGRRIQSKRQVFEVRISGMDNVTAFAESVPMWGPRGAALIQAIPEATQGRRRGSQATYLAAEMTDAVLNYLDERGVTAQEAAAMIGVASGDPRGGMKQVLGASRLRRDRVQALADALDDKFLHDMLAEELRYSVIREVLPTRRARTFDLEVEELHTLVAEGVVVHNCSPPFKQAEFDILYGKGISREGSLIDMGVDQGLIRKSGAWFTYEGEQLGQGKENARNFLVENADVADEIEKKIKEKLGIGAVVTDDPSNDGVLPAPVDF
Kind of assay: Fluorescence Cell-Free Homogeneous Dose Retest to Identify Inhibitors of RecA-Intein Splicing Activity. [Related pubchem assays (depositor defined):AID2097, AID2223, AID489010, AID492950]. The assay is classed as functional.

For the next assay, the system named is H9c2. Kind of assay: cells. The format is functional, cell-based. Particulars: Rattus norvegicus, H9c2, Myocardium.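 Note: confirmatory concentration-response retest of ultra-high-throughput screening hits for modulation of myocardial damage; cell death induced by hydrogen peroxide oxidative stress; compound pretreatment for 60 min then peroxide exposure for 2 h; potency is for protecting the cells against peroxide damage rather than for killing them.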
In a further assay the target is T6, Coagulation factor XII (Homo sapiens, UniProt P00748).
T6 sequence (P00748 whole entry): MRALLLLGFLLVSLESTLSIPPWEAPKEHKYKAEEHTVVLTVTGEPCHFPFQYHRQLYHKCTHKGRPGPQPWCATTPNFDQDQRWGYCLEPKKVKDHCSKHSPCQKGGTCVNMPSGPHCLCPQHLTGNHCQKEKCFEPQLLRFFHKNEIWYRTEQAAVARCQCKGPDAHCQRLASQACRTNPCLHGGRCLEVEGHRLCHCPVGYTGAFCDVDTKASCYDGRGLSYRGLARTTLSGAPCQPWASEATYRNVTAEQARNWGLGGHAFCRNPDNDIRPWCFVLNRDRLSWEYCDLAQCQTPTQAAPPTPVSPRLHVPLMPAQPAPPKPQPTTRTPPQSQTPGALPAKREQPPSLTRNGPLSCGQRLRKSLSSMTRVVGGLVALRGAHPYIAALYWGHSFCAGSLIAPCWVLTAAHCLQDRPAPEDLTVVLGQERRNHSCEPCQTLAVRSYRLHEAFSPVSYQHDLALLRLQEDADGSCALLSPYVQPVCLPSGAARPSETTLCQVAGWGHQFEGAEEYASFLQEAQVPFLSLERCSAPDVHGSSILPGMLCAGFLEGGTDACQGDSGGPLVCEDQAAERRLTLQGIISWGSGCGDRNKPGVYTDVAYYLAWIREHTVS
Nature of the assay: Factor XIIa Dose Response Confirmation from Single Well HTS. [Related pubchem assays (depositor defined):AID701]. The format is functional.

The structures appear in SMILES notation. The source made the active and inactive calls. Bounds are passed on as bounds.
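Throughout, for CC50: cells exposed to compound for 72 hours before luminescence readout.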

T3 sequence (Q01196 whole entry, the tested form may be a part): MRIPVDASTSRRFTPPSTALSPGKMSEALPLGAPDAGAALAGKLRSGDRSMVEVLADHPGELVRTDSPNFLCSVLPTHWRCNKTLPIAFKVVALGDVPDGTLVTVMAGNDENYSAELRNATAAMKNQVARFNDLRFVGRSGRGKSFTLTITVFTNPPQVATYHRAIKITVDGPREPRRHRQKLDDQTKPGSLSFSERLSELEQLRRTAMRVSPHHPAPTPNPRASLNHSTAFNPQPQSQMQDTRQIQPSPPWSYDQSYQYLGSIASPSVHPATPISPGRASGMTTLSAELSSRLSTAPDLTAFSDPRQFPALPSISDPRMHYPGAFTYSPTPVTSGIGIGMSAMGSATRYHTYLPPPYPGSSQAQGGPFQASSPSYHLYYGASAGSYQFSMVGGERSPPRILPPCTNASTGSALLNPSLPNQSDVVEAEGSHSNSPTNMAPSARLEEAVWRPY
T3 sequence (Q13951 whole entry, the tested form may be a part): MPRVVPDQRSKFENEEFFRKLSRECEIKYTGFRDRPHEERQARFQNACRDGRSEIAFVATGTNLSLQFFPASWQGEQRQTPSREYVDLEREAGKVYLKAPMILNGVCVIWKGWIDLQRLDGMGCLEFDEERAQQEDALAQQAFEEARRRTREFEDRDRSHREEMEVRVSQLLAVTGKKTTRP
Signal transducer and activator of transcription 3, sequence (P40763 whole entry): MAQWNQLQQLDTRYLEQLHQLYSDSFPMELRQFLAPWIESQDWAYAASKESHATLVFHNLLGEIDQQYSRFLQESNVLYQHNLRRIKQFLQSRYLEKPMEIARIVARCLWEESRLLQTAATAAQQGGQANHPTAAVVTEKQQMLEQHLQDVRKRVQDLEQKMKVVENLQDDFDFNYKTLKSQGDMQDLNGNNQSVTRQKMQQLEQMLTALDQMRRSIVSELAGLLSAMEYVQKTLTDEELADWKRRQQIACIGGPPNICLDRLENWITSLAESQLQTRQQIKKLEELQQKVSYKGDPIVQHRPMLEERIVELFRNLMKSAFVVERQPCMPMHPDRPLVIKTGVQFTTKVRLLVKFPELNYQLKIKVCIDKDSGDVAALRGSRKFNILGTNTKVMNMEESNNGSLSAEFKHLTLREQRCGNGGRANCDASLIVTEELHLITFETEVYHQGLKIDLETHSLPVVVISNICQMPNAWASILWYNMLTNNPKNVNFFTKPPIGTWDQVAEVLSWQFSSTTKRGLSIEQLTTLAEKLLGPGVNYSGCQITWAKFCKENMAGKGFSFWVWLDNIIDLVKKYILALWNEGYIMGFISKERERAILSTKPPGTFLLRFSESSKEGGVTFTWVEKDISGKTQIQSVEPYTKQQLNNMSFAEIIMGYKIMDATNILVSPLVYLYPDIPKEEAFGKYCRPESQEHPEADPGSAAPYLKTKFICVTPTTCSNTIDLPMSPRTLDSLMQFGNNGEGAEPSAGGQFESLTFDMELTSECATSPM
Nucleotide-binding oligomerization domain-containing protein 2, sequence (Q9HC29 whole entry, the tested form may be a part): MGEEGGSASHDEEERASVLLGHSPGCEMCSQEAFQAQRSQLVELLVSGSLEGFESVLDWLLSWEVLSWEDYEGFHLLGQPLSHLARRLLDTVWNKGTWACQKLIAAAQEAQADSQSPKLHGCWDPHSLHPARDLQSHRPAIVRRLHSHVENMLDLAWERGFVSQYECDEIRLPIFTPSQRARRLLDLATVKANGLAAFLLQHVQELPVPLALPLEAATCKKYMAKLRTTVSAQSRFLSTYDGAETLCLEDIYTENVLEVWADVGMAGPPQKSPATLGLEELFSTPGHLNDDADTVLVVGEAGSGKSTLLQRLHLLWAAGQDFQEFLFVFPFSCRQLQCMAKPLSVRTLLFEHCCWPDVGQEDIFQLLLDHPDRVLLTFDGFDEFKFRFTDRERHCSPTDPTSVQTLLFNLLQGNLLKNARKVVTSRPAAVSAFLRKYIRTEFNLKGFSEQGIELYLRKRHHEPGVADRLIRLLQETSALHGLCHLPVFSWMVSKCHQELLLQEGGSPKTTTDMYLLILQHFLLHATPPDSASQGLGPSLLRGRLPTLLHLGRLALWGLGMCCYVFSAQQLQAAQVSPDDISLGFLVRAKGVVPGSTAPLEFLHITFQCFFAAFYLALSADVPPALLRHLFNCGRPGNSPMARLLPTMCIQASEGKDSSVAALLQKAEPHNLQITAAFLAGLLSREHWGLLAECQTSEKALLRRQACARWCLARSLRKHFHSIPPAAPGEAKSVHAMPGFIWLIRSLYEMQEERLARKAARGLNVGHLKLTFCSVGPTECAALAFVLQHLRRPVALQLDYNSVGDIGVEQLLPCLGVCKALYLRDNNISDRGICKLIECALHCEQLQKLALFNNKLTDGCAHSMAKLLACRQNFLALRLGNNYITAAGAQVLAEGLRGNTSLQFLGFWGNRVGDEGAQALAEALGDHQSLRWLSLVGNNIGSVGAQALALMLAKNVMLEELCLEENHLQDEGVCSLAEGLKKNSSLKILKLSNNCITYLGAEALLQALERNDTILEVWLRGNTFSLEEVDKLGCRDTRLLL

Broadly, the IC50 is the concentration that inhibits the measured activity by half. Turning to `CC(C)c1ccc(S(=O)(=O)n2c(N)nc3ccccc32)cc1`, the IC50 in assay [1] was > 20 µM (inactive); with HEK293 it was > 20 µM (inactive); on Tumor necrosis factor it was > 20 µM (inactive); in [2], 0.495 µM (active).
`COc1cccc(CN2CCN(Cc3cc4ccccc4[nH]3)CC2CCO)c1` (stereo not drawn): the EC50 in [3] is 15.1 µM (active); at Ion channel NompC, 5.32 µM (active); at Mucolipin-3, 5.42 µM (active).
Turning to `c1ccc(CC2CCN(c3ncnc4sc(-c5ccccc5)cc34)CC2)cc1`, the IC50 in assay [4] and in assay [5] was > 55.7 µM (inactive) in each case.
Regarding `CC(C)N(CCNC(=O)c1ccc(CNS(=O)(=O)c2ccc(C#N)cc2)cc1)Cc1ccccc1`, the values for the IC50 in assay [6] and in assay [7] were 1.36 µM (active) and 3.54 µM (active), respectively.
In the case of `Cc1cc(O)ccc1Nc1nc2ccccc2nc1Nc1ccc(O)cc1C`, the IC50 in [8] is 7.08 µM (active); in assay [9], 9.73 µM (active).
A word on the CC50: it is the concentration at which the toxic effect on the cells reaches its halfway point. For orientation: AC50 means the midpoint of the concentration-response curve, whichever way the signal moves. As to `N#CC1=C(N)Oc2[nH]nc(-c3ccccc3)c2C1c1cccc(OC(=O)N2CCOCC2)c1` (stereo not drawn), the CC50 in assay [10] is 31.4 µM (active). Further, the AC50 in assay [11] is 4.72 µM (active). Besides, the EC50 at Protein RecA is 1.19 µM (active).
On to `CC(=O)Oc1ccc2c(C)cc(=O)oc2c1`, for which the results for the IC50 with H9c2 and on Coagulation factor XII were 16.5 µM (active) and > 50 µM (inconclusive), respectively.
